Assay results reported in patent US10858360B2, “Tricyclic gyrase inhibitors” (priority 2011, dated 2020).
In brackets after ≈: the same amount, converted by molar mass. Like-named read-outs stand apart in the source and are kept apart here.

Experiments:
[1] = test system: S. aureus ATCC 13709; assay: MIC, S. aureus ATCC 13709 (Alamar Blue broth microdilution); type: cell-based; details: for MIC: Staphylococcus aureus, ATCC13709, S. aureus
[2] = test system: E. coli ATCC 25922; assay: MIC, E. coli ATCC 25922; type: cell-based; details: for MIC: Escherichia coli, ATCC25922, E. coli
[3] = Alamar Blue read after overnight incubation at 35° C.
[4] = S. aureus, Alamar Blue read after overnight incubation at 35° C.
[5] = E. coli, Alamar Blue read after overnight incubation at 35° C.

Compound	MIC [1, 3]	MIC [2, 3]	MIC Sa [1, 4]	MIC Ec [2, 5]	further results
NC1CCN(c2nc(Sc3cnc4nccnc4c3)nc3[nH]c4ccccc4c23)C1 (stereo not shown) [1.6]	32 µg/mL (≈ 77.2 µM)	> 64 µg/mL	–	–	–
Cc1ncc(Oc2nc(N3C[C@H](N)C4(CC4)C3)c3c(n2)[nH]c2c(N(C)C(=O)[C@H](C)N)cc(F)cc23)cn1 [4.423]	> 16 µg/mL	> 16 µg/mL	–	–	–
CNc1cc(F)cc2c1[nH]c1nc(Oc3cnc(C)nc3)nc(N3CC(N)C(C(=O)N4CCOCC4)C3)c12 (stereo not shown) [4.438]	1 µg/mL (≈ 1.92 µM)	16 µg/mL (≈ 30.7 µM)	–	–	–
CNc1cc(F)c(F)c2c1[nH]c1nc(Oc3cncnc3)nc(N3CC(N)C4(CC4)C3)c12 (stereo not shown) [5.09]	–	–	≤0.5 µg/mL	≤0.5 µg/mL	–
CNc1nccc2c1[nH]c1nc(Oc3cncnc3)nc(N3CC[C@@H](N)C3)c12 [7.02]	> 64 µg/mL	32 µg/mL (≈ 84.8 µM)	–	–	–
CNc1cccc2c1[nH]c1nc(Sc3cncnc3)nc(N3CC(N)C4(CC4)C3)c12 (stereo not shown) [1.44]	1 µg/mL (≈ 2.39 µM)	2 µg/mL (≈ 4.78 µM)	–	–	–
CNc1cc(F)cc2c1[nH]c1nc(Oc3cnc(C)nc3)nc(N3CCC4(CNC4)C3)c12 [4.125]	–	–	≤0.5 µg/mL	4 µg/mL (≈ 9.21 µM)	–
CNc1cc(C)cc2c1[nH]c1nc(Oc3cnc(C)nc3)nc(N3CC4C(N)C4C3)c12 (stereo not shown) [6.26]	–	–	–	–	MIC Sa [1]: ≤0.5 µg/mL; MIC Ec [2]: 1 µg/mL (≈ 2.4 µM)
CNc1cc(F)cc2c1[nH]c1nc(Oc3cnc(C(C)O)nc3)nc(C3CC4(CC[C@H]4N)C3)c12 (stereo partly shown) [4.430]	≤ 0.5 µg/mL	≤ 0.5 µg/mL	–	–	–
CNc1cccc2c1[nH]c1nc(Oc3ccc(C(=O)OC)nc3)nc(N3CC4C(N)C4C3)c12 (stereo not shown) [3.21]	≤ 0.5 µg/mL	1 µg/mL (≈ 2.24 µM)	–	–	–
CNc1cc(F)cc2c1[nH]c1nc(Oc3cnc(C)nc3)nc(-c3ccc(Cl)cc3N)c12 [4.161]	–	–	≤0.5 µg/mL	≤0.5 µg/mL	–
CNc1cc(F)c(C)c2c1[nH]c1nc(Oc3cnc(C)nc3)nc(NC3CCCCC3N)c12 (stereo not shown) [6.22]	–	–	–	–	MIC Sa [1]: >16 µg/mL; MIC Ec [2]: >16 µg/mL
COc1cccc2c1[nH]c1nc(Oc3cccc(C#N)c3)nc(N3CC4C(N)C4C3)c12 (stereo not shown) [2.12]	–	–	16 µg/mL (≈ 38.8 µM)	>64 µg/mL	–
CNc1c(F)ccc2c1[nH]c1nc(Oc3cnc(C)nc3)nc(N3CC[C@@H](N)C3)c12 [6.01]	≤ 0.5 µg/mL	1 µg/mL (≈ 2.45 µM)	–	–	–
CNc1cc(F)cc2c1[nH]c1nc(Oc3cnc(OC)nc3)nc(N3C[C@H](N)C4(CC4)C3)c12 [4.433]	≤ 0.5 µg/mL	≤ 0.5 µg/mL	–	–	–
CNc1cc(F)cc2c1[nH]c1nc(Oc3cncc(Cl)c3)nc(N3CC4C(N)C4C3)c12 (stereo not shown) [4.272]	≤ 0.5 µg/mL	≤ 0.5 µg/mL	–	–	–

Compound	MIC [1, 3]	MIC [2, 3]	MIC Sa [1, 4]	MIC Ec [2, 5]	further results
CNc1cccc2c1[nH]c1nc(Sc3cnc4ccc[n+]([O-])c4c3)nc(N3CC(O)C3)c12 [1.17]	≤ 0.5 µg/mL	> 64 µg/mL	–	–	–
CNc1cc(F)cc2c1[nH]c1nc(Oc3cnc(C)nc3)nc(N3CC4CCC(N)C3C4)c12 (stereo not shown) [4.123]	–	–	16 µg/mL (≈ 35.7 µM)	>16 µg/mL	–
CNc1cc(F)cc2c1[nH]c1nc(Oc3cnc(C)nc3)nc(-c3cc(CN)ccc3F)c12 [4.421]	2 µg/mL (≈ 4.47 µM)	8 µg/mL (≈ 17.9 µM)	–	–	–
CNc1cc(F)cc2c1[nH]c1nc(Oc3cncnc3)ncc12 [4.031]	2 µg/mL (≈ 6.45 µM)	> 16 µg/mL	–	–	–
CNc1cc(F)cc2c1[nH]c1nc(Oc3ccc4c(c3)C(=O)NC4)nc(N3CCC4(CC4N)C3)c12 (stereo not shown) [4.266]	–	–	≤0.5 µg/mL	1 µg/mL (≈ 2.11 µM)	–
CNc1cc(F)cc2c1[nH]c1nc(Oc3cnc(CO)nc3)nc(N3CC(N)C4(CC4)C3)c12 (stereo not shown) [4.387]	–	–	≤0.5 µg/mL	≤0.5 µg/mL	–
CCNc1cccc2c1[nH]c1nc(Sc3cnc4ccc[n+]([O-])c4c3)nc(N3CC4C(N)C4C3)c12 (stereo not shown) [1.10]	≤ 0.5 µg/mL	4 µg/mL (≈ 8.25 µM)	–	–	–
CNc1cc(F)cc2c1[nH]c1nc(Oc3cncnc3)nc(N3C[C@@H]4[C@H](C3)[C@@]4(N)C(N)=O)c12 [4.009]	≤ 0.5 µg/mL	> 64 µg/mL	–	–	–
CNc1cc(F)cc2c1[nH]c1nc(Oc3cnc(C)nc3)nc(N3CC(N)C(F)C3)c12 (stereo not shown) [4.137]	–	–	≤0.5 µg/mL	1 µg/mL (≈ 2.35 µM)	–
CNc1cc(F)cc2c1[nH]c1nc(Oc3ccc4c(c3)C(=O)NC4)nc(N3CC4(CCC4N)C3)c12 (stereo not shown) [4.270]	–	–	≤0.5 µg/mL	2 µg/mL (≈ 4.22 µM)	–
CNc1cc(F)cc2c1[nH]c1nc(Oc3cnc(C)nc3)nc(N3CC4(CCN4)C3)c12 [4.120]	–	–	≤0.5 µg/mL	1 µg/mL (≈ 2.38 µM)	–
CNc1cc(F)cc2c1[nH]c1nc(Oc3cnc(C)nc3)nc(N[C@@H]3CC4CC3CN4)c12 (stereo partly shown) [4.155]	2 µg/mL (≈ 4.6 µM)	> 16 µg/mL	–	–	–
CNc1cc(F)cc2c1[nH]c1nc(Oc3cncnc3)nc(N3CC4C[C@@H](N)C4C3)c12 (stereo partly shown) [4.028]	≤ 0.5 µg/mL	≤ 0.5 µg/mL	–	–	–
CNc1cc(F)cc2c1[nH]c1nc(Oc3cnc(C)nc3)nc(N3CC4CC(N)C3C4)c12 (stereo not shown) [4.148]	≤ 0.5 µg/mL	4 µg/mL (≈ 9.21 µM)	–	–	–
CNc1cc(F)cc2c1[nH]c1nc(Oc3cnc(N4CC(S(=O)(=O)CC5CC5)C4)nc3)nc(N3CC4C(N)C4C3)c12 (stereo not shown) [4.337]	–	–	≤0.5 µg/mL	1 µg/mL (≈ 1.73 µM)	–
CNc1cccc2c1[nH]c1nc(Oc3cnc(C)nc3)nc(N3C[C@@H](N)C4(CC4)C3)c12 [3.48]	2 µg/mL (≈ 4.8 µM)	8 µg/mL (≈ 19.2 µM)	–	–	–
